# System: P. pastoris
# Assay: Effect of hydroxyurea on cell growth and antibody productivity in fed-batch fermentation, Run 01MAY11
# Format: cell-based, Pichia pastoris
# Protocol: The glucose and ethanol were measured by YSI 2700 (YSI Incorporated, Yellow Springs, Ohio), O2 and CO2 of the exhaust line were measured by Questor GP Process Mass Spectrometer (ABB Extrel, Pittsburgh, Pa.) and the RQ value was calculated using below Equation [1]. The wet cell weight (WCW) was measured by centrifuging 1 milliliter (mL) fermentation broth at 13,200 rpm for 10 minutes, weighing pellet, and calculated ratio of pellets weight (g) over volume (mL). The supernatant titer (g/L) was measured by the HPLC method and the whole broth (WB) titer was then calculated by below Equation [2].
# WB_Titer=Supernatant_Titer*(1−WCW/1000)
# The treatment cultures were operated the same way plus adding hydroxyurea 5 hours after feed start.
smiles,measurement,setting,value
NC(=O)NO [Hydroxyurea],average whole broth titer,"90 hours run time, three hydroxyurea treatment lots",75 normalized units
same,WCW reached and maintained by hydroxyurea treatment lots,"after peak cell density at 30-40 hours, control lots ~400 g/Kg",~450 g/kg

# Source: patent US20140273094A1, “METHODS OF ENHANCING PROTEIN QUALITY AND QUANTITY BY YEAST FED-BATCH FERMENTATION” (BRISTOL-MYERS SQUIBB COMPANY, priority 2013, published 2014)
